# Measurements published in patent US12673961B2 (Agios Pharmaceuticals, Inc., priority 2022, dated 2026).
# Target: T1, human PAH with the R408W mutation (Homo sapiens, UniProt P00439, R408W)
# T1 construct: expressed in transfected cells
# T1 sequence (P00439 1-452 R408W): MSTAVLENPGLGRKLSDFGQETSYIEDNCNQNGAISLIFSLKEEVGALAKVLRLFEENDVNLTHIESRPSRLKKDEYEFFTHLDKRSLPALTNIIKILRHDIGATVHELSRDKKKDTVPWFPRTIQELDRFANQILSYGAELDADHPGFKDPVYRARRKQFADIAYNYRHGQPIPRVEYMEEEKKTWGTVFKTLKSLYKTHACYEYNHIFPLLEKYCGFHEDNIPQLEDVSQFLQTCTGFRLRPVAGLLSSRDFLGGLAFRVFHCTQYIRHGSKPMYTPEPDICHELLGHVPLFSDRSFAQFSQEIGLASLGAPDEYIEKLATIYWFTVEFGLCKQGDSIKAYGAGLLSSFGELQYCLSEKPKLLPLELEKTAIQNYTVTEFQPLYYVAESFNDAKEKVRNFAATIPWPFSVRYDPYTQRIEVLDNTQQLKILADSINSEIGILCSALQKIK
# Assay: Cell Based Phenylalanine Flux Assay;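 further: Ten-point dose curve from 2-fold serial dilutions, run in duplicate at 0.5% DMSO final, tracer step used 20 µM sepiapterin and 800 µM labeled phenylalanine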
# Details: A375 cells expressing human R408W PAH; 24 hrs compound incubation; 13C-Tyrosine by LC-MS; average where tested multiple times; read-out: AC50
row,SMILES,AC50 [nM]
1,"Cn1nc(C(F)F)nc1C(=O)N1CCc2[nH]cnc2C1c1cc2c(Cl)cccn2n1 (stereo in doubt) [Example 781, (R)-(4-(4-chloropyrazolo [1,5-a]pyridin-2-yl)-6,7-dihydro-1H-imidazo[4,5-c]pyridin-5(4H)-yl)(3-(difluoromethyl)-1-methyl-1H-1,2,4-triazol-5-yl)methanone]",1000 to 5000
2,"Cn1cnc(-c2nnc(C(=O)N3CCc4[nH]cnc4C3c3cc4c(C(F)(F)F)cccn4n3)o2)c1 (stereo in doubt) [Example 934, (S)-(5-(1-methyl-1H-imidazol-4-yl)-1,3,4-oxadiazol-2-yl)(4-(4-(trifluoromethyl)pyrazolo[1,5-a]pyridin-2-yl)-6,7-dihydro-1H-imidazo [4,5-c]pyridin-5(4H)-yl)methanone]",500 to 1000
3,"CCOc1cccc2cc(C3c4nc[nH]c4CCN3C(=O)c3oc(C(C)(C)O)nc3C(F)F)nn12 (stereo in doubt) [Example 1245, (S)-(4-(difluoromethyl)-2-(2-hydroxypropan-2-yl)oxazol-5-yl)(4-(7-ethoxypyrazolo [1,5-a]pyridin-2-yl)-6,7-dihydro-1H-imidazo[4,5-c]pyridin-5(4H)-yl)methanone]",500 to 1000
4,"CC(F)(F)c1ncc(C(=O)N2CCc3[nH]cnc3[C@@H]2c2cc3ccccn3n2)s1 [Example 613, (R)-(2-(1,1-difluoroethyl)thiazol-5-yl)(4-(pyrazolo [1,5-a]pyridin-2-yl)-6,7-dihydro-1H-imidazo[4,5-c]pyridin-5(4H)-yl)methanone]",1000 to 5000
5,"O=C(c1oc(-c2ccccn2)nc1C1CC1)N1CCc2[nH]cnc2[C@H]1c1cc2ccccn2n1 [Example 622, (S)-(4-cyclopropyl-2-(pyridin-2-yl)oxazol-5-yl)(4-(pyrazolo[1,5-a]pyridin-2-yl)-6,7-dihydro-1H-imidazo[4,5-c]pyridin-5(4H)-yl)methanone]",500 to 1000
6,"O=C(CC1CC(F)C1)N1CCc2[nH]cnc2[C@H]1c1cc2ccccn2n1 (stereo partly drawn) [Example 636, (S)-2-(3-fluorocyclobutyl)-1-(4-(pyrazolo[1,5-a]pyridin-2-yl)-6,7-dihydro-1H-imidazo [4,5-c]pyridin-5(4H)-yl)ethenone]",< 500
7,"O=C(CC1CC(F)C1)N1CCc2[nH]cnc2[C@@H]1c1cc2ccccn2n1 (stereo partly drawn) [Example 637, (R)-2-(3-fluorocyclobutyl)-1-(4-(pyrazolo[1,5-a]pyridin-2-yl)-6,7-dihydro-1H-imidazo [4,5-c]pyridin-5(4H)-yl)ethanone]",1000 to 5000
8,"Cc1cc(F)ccc1-c1nnc(C(=O)N2CCc3[nH]cnc3[C@@H]2c2cc3ccccn3n2)o1 [Example 655, (R)-(5-(4-fluoro-2-methylphenyl)-1,3,4-oxadiazol-2-yl)(4-(pyrazolo [1,5-a]pyridin-2-yl)-6,7-dihydro-1H-imidazo[4,5-c]pyridin-5(4H)-yl)methanone]",1000 to 5000
9,"Cn1ccc(-c2nnc(C(=O)N3CCc4[nH]cnc4[C@H]3c3cc4ccccn4n3)o2)n1 [Example 658, (S)-(5-(1-methyl-1H-pyrazol-3-yl)-1,3,4-oxadiazol-2-yl)(4-(pyrazolo[1,5-a]pyridin-2-yl)-6,7-dihydro-1H-imidazo[4,5-c]pyridin-5(4H)-yl)methanone]",1000 to 5000
10,"Cn1nc(Cl)cc1C(=O)N1CCc2[nH]cnc2[C@@H]1c1cc2ccccn2n1 [Example 681, (R)-(3-chloro-1-methyl-1H-pyrazol-5-yl)(4-(pyrazolo [1,5-a]pyridin-2-yl)-6,7-dihydro-1H-imidazo[4,5-c]pyridin-5(4H)-yl)methanone]",> 5000
11,"N#Cc1ncoc1C(=O)N1CCc2[nH]cnc2[C@@H]1c1cc2ccc(Cl)cn2n1 [Example 685, (R)-5-(4-(6-chloropyrazolo [1,5-a]pyridin-2-yl)-4,5,6,7-tetrahydro-1H-imidazo[4,5-c]pyridine-5-carbonyl) oxazole-4-carbonitrile]",> 5000
12,"C[C@@H](O)c1nc(C(F)F)c(C(=O)N2CCc3[nH]cnc3[C@@H]2c2cc3ccccn3n2)o1 [Example 691, (4-(difluoromethyl)-2-((R)-1-hydroxyethyl)oxazol-5-yl)((R)-4-(pyrazolo[1,5-a]pyridin-2-yl)-6,7-dihydro-1H-imidazo[4,5-c]pyridin-5(4H)-yl)methanone]",> 5000
13,"CC(C)(C#N)c1nc(C(F)F)c(C(=O)N2CCc3[nH]cnc3[C@@H]2c2cc3ccccn3n2)o1 [Example 698, (R)-2-(4-(difluoromethyl)-5-(4-(pyrazolo[1,5-a]pyridin-2-yl)-4,5,6,7-tetrahydro-1H-imidazo[4,5-c]pyridine-5-carbonyl)oxazol-2-yl)-2-methylpropanenitrile]",1000 to 5000
14,"C[C@@H](O)c1nc(C(F)F)c(C(=O)N2CCc3[nH]cnc3[C@@H]2c2cc3c(Cl)cccn3n2)o1 [Example 703, ((R)-4-(4-chloropyrazolo [1,5-a]pyridin-2-yl)-6,7-dihydro-1H-imidazo[4,5-c]pyridin-5(4H)-yl)(4-(difluoromethyl)-2-((R)-1-hydroxyethyl)oxazol-5-yl)methanone]",1000 to 5000
15,"O=C(c1oc(C2(O)CC2)nc1C(F)F)N1CCc2[nH]cnc2[C@@H]1c1cc2c(Cl)cccn2n1 [Example 705, (R)-(4-(4-chloropyrazolo [1,5-a]pyridin-2-yl)-6,7-dihydro-1H-imidazo[4,5-c]pyridin-5(4H)-yl)(4-(difluoromethyl)-2-(1-hydroxycyclopropyl)oxazol-5-yl)methanone]",1000 to 5000
16,"C[C@@H](O)c1nc(C(F)F)c(C(=O)N2CCc3[nH]cnc3[C@@H]2c2cc3c(F)cccn3n2)o1 [Example 711, (4-(difluoromethyl)-2-((R)-1-hydroxyethyl)oxazol-5-yl)((R)-4-(4-fluoropyrazolo [1,5-a]pyridin-2-yl)-6,7-dihydro-1H-imidazo[4,5-c]pyridin-5(4H)-yl)methanone]",> 5000
17,"C[C@H](O)c1nc(C(F)F)c(C(=O)N2CCc3[nH]cnc3[C@H]2c2cc3c(F)cccn3n2)o1 [Example 712, (4-(difluoromethyl)-2-((S)-1-hydroxyethyl)oxazol-5-yl)((S)-4-(4-fluoropyrazolo [1,5-a]pyridin-2-yl)-6,7-dihydro-1H-imidazo[4,5-c]pyridin-5(4H)-yl)methanone]",< 500
18,"C[C@H](O)c1nc(C(F)F)c(C(=O)N2CCc3[nH]cnc3[C@@H]2c2cc3c(F)cccn3n2)o1 [Example 713, (4-(difluoromethyl)-2-((S)-1-hydroxyethyl)oxazol-5-yl)((R)-4-(4-fluoropyrazolo [1,5-a]pyridin-2-yl)-6,7-dihydro-1H-imidazo[4,5-c]pyridin-5(4H)-yl)methanone]",> 5000
19,"Cn1cc(-c2nnc(C(=O)N3CCc4[nH]cnc4[C@@H]3c3cc4c(F)cccn4n3)o2)cn1 [Example 729, (R)-(4-(4-fluoropyrazolo[1,5-a]pyridin-2-yl)-6,7-dihydro-1H-imidazo[4,5-c]pyridin-5(4H)-yl)(5-(1-methyl-1H-pyrazol-4-yl)-1,3,4-oxadiazol-2-yl)methanone]",> 5000
20,"Cn1ccc(-c2nnc(C(=O)N3CCc4[nH]cnc4[C@H]3c3cc4c(F)cccn4n3)o2)n1 [Example 730, (S)-(4-(4-fluoropyrazolo [1,5-a]pyridin-2-yl)-6,7-dihydro-1H-imidazo[4,5-c]pyridin-5(4H)-yl)(5-(1-methyl-1H-pyrazol-3-yl)-1,3,4-oxadiazol-2-yl)methanone]",< 500
21,"O=C(c1nnc(-c2ccccn2)o1)N1CCc2[nH]cnc2[C@@H]1c1cc2c(F)cccn2n1 [Example 732, (R)-(4-(4-fluoropyrazolo [1,5-a]pyridin-2-yl)-6,7-dihydro-1H-imidazo[4,5-c]pyridin-5(4H)-yl)(5-(pyridin-2-yl)-1,3,4-oxadiazol-2-yl)methanone]",> 5000
22,"Cc1cccn2nc([C@H]3c4nc[nH]c4CCN3C(=O)c3nnc(-c4ccn(C)n4)o3)cc12 [Example 742, (R)-(5-(1-methyl-1H-pyrazol-3-yl)-1,3,4-oxadiazol-2-yl)(4-(4-methylpyrazolo[1,5-a]pyridin-2-yl)-6,7-dihydro-1H-imidazo [4,5-c]pyridin-5(4H)-yl)methanone]",> 5000

# Same assay, conditions: A375 cells expressing human R408W PAH; 24 hrs with compound, then sepiapterin and 13C9,15N-Phenylalanine for 4 hours; 13C-Tyrosine by LC-MS; average where tested multiple times; read-out: AC50
row,SMILES,AC50 [nM]
1,"Fc1cccc(F)c1-c1nnc(N2CCc3[nH]cnc3[C@H]2c2cc3ccccn3n2)o1 (single isomer, unassigned) [Example 1843]",< 500
2,"O=C(c1cnc(-c2ccccn2)o1)N1CCc2[nH]cnc2C1c1cc2c(C(F)(F)F)cccn2n1 (stereo in doubt) [Example 2036, (S)-(2-(pyridin-2-yl)oxazol-5-yl)(4-(4-(trifluoromethyl)pyrazolo [1,5-a]pyridin-2-yl)-1,4,6,7-tetrahydro-5H-imidazo[4,5-c]pyridin-5-yl)methanone]",< 500
3,"O=C(c1cnc(C2CC2)o1)N1CCc2[nH]cnc2C1c1cc2c(F)cccn2n1 (stereo in doubt) [Example 2098, (S)-(2-cyclopropyloxazol-5-yl)(4-(4-fluoropyrazolo[1,5-a]pyridin-2-yl)-1,4,6,7-tetrahydro-5H-imidazo[4,5-c]pyridin-5-yl)methanone]",< 500
4,"CC(C)c1nnc(N2CCc3[nH]cnc3C2c2cc3c(F)cccn3n2)o1 (stereo in doubt) [Example 2323, (S)-2-(4-(4-fluoropyrazolo [1,5-a]pyridin-2-yl)-1,4,6,7-tetrahydro-5H-imidazo [4,5-c]pyridin-5-yl)-5-isopropyl-1,3,4-oxadiazole]",500 to 1000
